Here are results for ten molecules from patent US20230150995A1, “HETEROARYL-METHYL SUBSTITUTED TRIAZOLES” (Hoffmann-La Roche Inc., priority 2020, published 2023).

The target in the experiment is T1, human V1a receptor (Homo sapiens, UniProt P37288).
T1 construct: expressed in transfected cells; host or cells: HEK293 cells, transiently transfected; cell membranes
The experiment is described as follows: human V1a receptor binding study (3H-Vasopressin SPA, HEK293 membranes). To be noted: membranes of HEK293 cells transiently transfected with human V1a receptor, Ki by Cheng-Prusoff, read-out: pKi (hV1a) (converted). On the procedure: The human V1a receptor was cloned by RT-PCR from total human liver RNA. The coding sequence was subcloned in an expression vector after sequencing to confirm the identity of the amplified sequence. […] Cell membranes were prepared from HEK293 cells transiently transfected with the expression vector and grown in 20 liter fermenters with the following protocol.
50 g of cells are re-suspended in 30 ml freshly prepared ice cold Lysis buffer (50 mM HEPES, 1 mM EDTA, 10 mM MgCl2 adjusted to pH=7.4+complete cocktail of protease inhibitor (Roche Diagnostics)). Homogenized with Polytron for 1 min and sonicated on ice for 2× 2 minutes at 80% intensity (Vibracell sonicator). The preparation is centrifuged 20 min at 500 g at 4° C., the pellet is discarded and the supernatant centrifuged 1 hour at 43′000 g at 4° C. (19′000 rpm). The pellet is re-suspended in 12.5 ml Lysis buffer+12.5 ml Sucrose 20% and homogenized using a Polytron for 1-2 min. The protein concentration is determined by the Bradford method and aliquots are stored at −80° C. until use. For binding studies 60 mg Yttrium silicate SPA beads (Amersham) are mixed with an aliquot of membrane in binding buffer (50 mM Tris, 120 mM NaCl, 5 mM KCl, 2 mM CaCl2, 10 mM MgCl2) for 15 minutes with mixing. 50 μl of bead/membrane mixture is then added to each well of a 96 well plate, followed by 50 μl of 4 nM 3H-Vasopressin (American Radiolabeled Chemicals). For total binding measurement 100 μl of binding buffer are added to the respective wells, for non-specific binding 100 μl of […] cold vasopressin and for compound testing 100 μl of a serial dilution of each compound in 2% DMSO. The plate is incubated 1 h at room temperature, centrifuged […] at 1000 g and counted on a Packard Top-Count. Non-specific binding counts are subtracted from each well and data is normalized to the maximum specific binding set at 100%. To calculate an IC 50 the curve is fitted using a non-linear regression model (XLfit) and the Ki is calculated using the Cheng-Prussoff equation.

Structures are written as SMILES.

T1 sequence (P37288 whole entry): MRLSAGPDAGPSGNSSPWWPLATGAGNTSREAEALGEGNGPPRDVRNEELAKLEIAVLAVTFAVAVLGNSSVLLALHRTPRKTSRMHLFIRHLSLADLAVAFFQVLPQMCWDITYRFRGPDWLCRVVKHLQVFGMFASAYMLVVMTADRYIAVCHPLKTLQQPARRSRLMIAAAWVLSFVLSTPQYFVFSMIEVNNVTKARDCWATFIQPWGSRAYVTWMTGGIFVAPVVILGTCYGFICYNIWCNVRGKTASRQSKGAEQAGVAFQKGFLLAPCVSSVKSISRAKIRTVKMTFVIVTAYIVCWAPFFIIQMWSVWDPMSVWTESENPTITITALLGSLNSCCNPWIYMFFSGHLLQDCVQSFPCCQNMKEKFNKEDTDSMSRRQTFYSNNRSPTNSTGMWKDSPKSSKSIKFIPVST

Regarding `Cc1cc(Cc2nnc([C@H]3CC[C@H](Oc4ccccn4)CC3)n2-c2ccc(Cl)cc2)no1` [Example 1, trans-3-[[4-(4-Chlorophenyl)-5-(4-pyridin-2-yloxycyclohexyl)-1,2,4-triazol-3-yl]methyl]-5-methyl-1,2-oxazole], the Ki was 0.17 nM. In the case of `Clc1ccc(-n2c(Cc3ccon3)nnc2[C@H]2CC[C@H](Oc3ccccn3)CC2)cc1` [Example 2, trans-3-[[4-(4-Chlorophenyl)-5-(4-pyridin-2-yloxycyclohexyl)-1,2,4-triazol-3-yl]methyl]-1,2-oxazole], the Ki is 0.229 nM. `Clc1ccc(-n2c(Cc3ccno3)nnc2[C@H]2CC[C@H](Oc3ccccn3)CC2)cc1` [Example 3, trans-5-[[4-(4-Chlorophenyl)-5-(4-pyridin-2-yloxycyclohexyl)-1,2,4-triazol-3-yl]methyl]-1,2-oxazole]: the Ki was 0.229 nM. For `Clc1ccc(-n2c(Cn3cccn3)nnc2[C@H]2CC[C@H](Oc3ccccn3)CC2)cc1` [Example 4, trans-2-[4-[4-(4-Chlorophenyl)-5-(pyrazol-1-ylmethyl)-1,2,4-triazol-3-yl]cyclohexyl]oxypyridine], the Ki was 0.347 nM. As for `Clc1ccc(-n2c(Cn3nccn3)nnc2[C@H]2CC[C@H](Oc3ccccn3)CC2)cc1` [Example 5, trans-2-[4-[4-(4-Chlorophenyl)-5-(triazol-2-ylmethyl)-1,2,4-triazol-3-yl]cyclohexyl]oxypyridine], the figure is 0.151 nM; as for `Clc1ccc(-n2c(Cn3nccn3)nnc2[C@H]2CC[C@@H](Oc3ccccn3)CC2)cc1` [Example 6, cis-2-[4-[4-(4-Chlorophenyl)-5-(triazol-2-ylmethyl)-1,2,4-triazol-3-yl]cyclohexyl]oxypyridine], 0.871 nM; as for `Clc1ccc(-n2c(Cn3ccnn3)nnc2[C@H]2CC[C@H](Oc3ccccn3)CC2)cc1` [Example 7, trans-2-[4-[4-(4-Chlorophenyl)-5-(triazol-1-ylmethyl)-1,2,4-triazol-3-yl]cyclohexyl]oxypyridine], 3.63 nM.

`Clc1ccc(-n2c(Cn3ccnc3)nnc2[C@H]2CC[C@H](Oc3ccccn3)CC2)cc1` [Example 8, trans-2-[4-[4-(4-Chlorophenyl)-5-(imidazol-1-ylmethyl)-1,2,4-triazol-3-yl]cyclohexyl]oxypyridine]: the Ki is 3.63 nM. Regarding `Clc1ccc(-n2c(Cn3cncn3)nnc2[C@H]2CC[C@H](Oc3ccccn3)CC2)cc1` [Example 9, trans-2-[4-[4-(4-Chlorophenyl)-5-(1,2,4-triazol-1-ylmethyl)-1,2,4-triazol-3-yl]cyclohexyl]oxypyridine], the Ki was 7.94 nM. Consider `Clc1ccc(-n2c(Cn3cnnn3)nnc2[C@H]2CC[C@H](Oc3ccccn3)CC2)cc1` [Example 10, trans-2-[4-[4-(4-Chlorophenyl)-5-(tetrazol-1-ylmethyl)-1,2,4-triazol-3-yl]cyclohexyl]oxypyridine], for which the Ki is 9.12 nM.
